Changes are numbered by the printed parent chain. Where two headings read alike, the source gives them in different places.

In one experiment the test system is RL. Briefly: In vitro growth inhibition of RL B-cell lymphoma line. Type of experiment: cell-based. Conditions: for IC50: read-out: IC50 of calicheamicin. The text has this: (§1) The effect of CMC-544 made by using CMA-676 and CMC-544 processes on the in vitro growth of CD22^+ B-Cell lymphoma cell lines, RL, Daudi, Raji and Ramos, were compared. An isotype-matched calicheamicin conjugate targeted at human CD33 (CMA-676) was used to reflect antigen-non-specific effects of the conjugate. […] CD22-mediated delivery of calicheamicin to the CD22^+ cells was at least 10 times more efficient in killing the target cells than the unconjugated drug itself. […] It is apparent from Table 4 that conjugate made by the CMC-544 conjugation process can generate equivalent cytotoxic effect at lower antibody concentrations than conjugate made by the CMA-676 conjugation process.

The test system of the next experiment is Daudi. Description: In vitro growth inhibition of Daudi B-cell lymphoma line. The format is cell-based. Conditions: Daudi #1; for IC50: read-out: IC50 of calicheamicin.
From the text: as §1

The subject of another experiment is Raji. Description: In vitro growth inhibition of Raji B-cell lymphoma line. Type of experiment: cell-based. The following applies: for IC50: read-out: IC50 of calicheamicin.
From the text: as §1

A further experiment relates to Ramos. Description: In vitro growth inhibition of Ramos B-cell lymphoma line. The format is cell-based, human. Conditions: read-out: IC50 of calicheamicin.
From the text: as §1

The subject of a further experiment is RL NHL xenografts. Description: RL NHL xenografts staged to 300-400 mg in nude mice. The format is in vivo. The following applies: 160 μg/kg intraperitoneally. The method, then: Similar studies were carried out using the RL lymphoma model. […] CMC-544 in a dose-dependent manner caused tumors to regress over a 3-week time frame. The minimally effective dose of CMC-544 in the RL lymphoma model was established from statistical analyses of these studies to be 20 μg/kg based on calicheamicin content. There were no deaths in any of these three studies.
The observed anti-tumor efficacy was dose-dependent as expected and there was no difference in the efficacies of either of the two CMC-544 preparations. […] However, it should be emphasized that for each dose of conjugated calicheamicin, the quantity of antibody protein administered in the form of a conjugate was four times higher for CMC-544 made by the CMA-676 process versus that made by the CMC-544 process. Since the calicheamicin content of the targeted conjugate is primarily responsible for causing the anti-tumor effect, it is possible to deliver the required quantity of calicheamicin via the conjugate made by the new procedure using much smaller quantities of the targeting antibody. The increased loading of the conjugate made by the CMC-544 process is, in effect, due to the lack of significant amounts of the low conjugated fraction (LCF).

The next experiment concerns large RAMOS lymphoma. Briefly: Large established RAMOS lymphoma xenografts. Type of experiment: in vivo, nude mice. The following applies: 160 μg/kg ip, days 1, 5 and 9. The protocol: The ability of CMC-544 made by the new procedure to inhibit growth of large established B-cell lymphoma xenografts using both the RAMOS and RL lymphoma models was also investigated. The tumors were allowed to grow and staged to 1.5 or 2 g of tumor mass after which CMC-544 or an isotype-matched negative control conjugate (CMA-676) were administered intraperitoneally at the dose of 160 μg/kg of conjugated calicheamicin keeping the original schedule of dosing on days 1, 5 and 9.
The same schedule of dosing was shown earlier to cause long lasting regression of small staged tumors (see Table 6).

The subject of experiment [1] is Ramos cells. Briefly: Disseminated RAMOS B lymphoma in SCID mice, developing model. The format is in vivo. The protocol:
(§2) Male SCID mice (CB17 SCID), 20-25 g, were injected with […] through the tail vein (0.2 ml). […] For the day 3 treatment schedule, mice were dosed on days 3, 7, and 11. For the day 9 treatment schedule, mice were dosed on days 9, 13 and 17. […] Mice were monitored daily for the presence of hind limb paralysis at which time they were killed. Seven to 10 mice per treatment group were used. The group average survival time (±SD), median, minimum, and maximum survival times were all calculated. The difference in survival distribution between groups was determined by using a nonparametric Log-rank test with significance reported at the 0.05 level. The survival curves were constructed using the Kaplan-Meier method.
The initial study examined the effect of two different dosing schedules on survival times of the SCID mice with the disseminated lymphoma. The first study looked at initiating drug dosing 3 days after the tumor cells were injected intravenously (developing model), while the second study delayed drug dosing until 9 days post tumor cell injection (established model).

Experiment [2] concerns Ramos cells. Description: Disseminated RAMOS B lymphoma in SCID mice, established model. The format is in vivo. The method, then: as §2
The initial study examined the effect of two different dosing schedules on survival times of the SCID mice with the disseminated lymphoma. The first study looked at initiating drug dosing 3 days after the tumor cells were injected intravenously (developing model), while the second study delayed drug dosing until 9 days post tumor cell injection (established model). […]

The subject of another experiment is CD22mFc. Briefly: BIACORE biosensor binding analysis of CMC-544 and G5/44. The following applies: Table 3. The method, then: Biosensor analyses were carried out using a BIACORE™ 2000 (BIAcore AB, Uppsala, Sweden). CD22mFc was covalently immobilized on the N-hydroxysuccinimide-activated carboxymethyl dextran-coated biosensor chip (CM5) using a standard amine-coupling chemistry at a protein density of approximately 2000 resonance units. Samples of CMC-544 or G5/44 were diluted in the HBS buffer (10 mM HEPES, pH 7.4, containing 150 mM NaCl, 3 mM EDTA and 0.005% polysorbate 20 (v/v)) and injected in the concentration range of 1 to 100 nM over the CD22mFc-coated biosensor chip surface at a flow rate of 30 μl/min for 3 min to allow binding. After the binding phase, dissociation of the bound antibody was monitored by washing the chip with the HBS buffer over a 15 minute period. The antigenic surface was regenerated by washing the Biosensor chip with 15 μl of the regeneration buffer (10 mM NaOH and 200 mM NaCl) for 30 seconds, followed by a stabilization time of 2 minutes before the next cycle. Kinetic constants were calculated by nonlinear least square regression analysis using a 1:1 Langmuir binding curve fitting model and BIAevaluation program (version 3.0, BIAcore). The antigen binding of CMC-544 was evaluated by surface plasmon resonance analysis using CD22mFc covalently immobilized on a biosensor chip.

In a further experiment the test system is CD22-mFc. Briefly: BIACORE affinity of chimeric 5/44 and its variants. Type of experiment: binding. The following applies: CDR-H2 mutants of chimeric 5/44. The protocol:
The activities of the chimeric genes were evaluated following transient transfection into CHO cells and determination of affinity constants by BIACORE™ analysis.
The affinities of chimeric 5/44 or its variants, which have had their glycosylation site or their reactive lysine removed, were investigated using BIA technology for binding to CD22-mFc constructs. All binding measurements were performed in the BIACORE™ 2000 instrument (Pharmacia Biosensor AB, Uppsala, Sweden). The assay was performed by capture of CD22mFc via the immobilized anti-mouse Fc. The antibody was in the soluble phase. Samples, standard, and controls (50 μl) were injected over immobilized anti-mouse Fc followed by antibody in the soluble phase. After each cycle, the surface was regenerated with 50 μl of 40 mM HCl at 30 μl/min. The kinetic analysis was performed using the BIAevaluation 3.1 software (Pharmacia).

The target in another experiment is T1, cell surface CD22 (Homo sapiens, UniProt P20273).
T1 construct: host or cells: Ramos (Burkitt's lymphoma)
Description: Competition assay against mouse 5/44 antibody for binding to Ramos cells. Conditions: grafted variants expressed in CHO cells. The text has this:
The vectors encoding grafted variants were co-transfected into CHO cells in a variety of combinations, together with the original chimeric antibody chains. Binding activity was compared in a competition assay, competing the binding of the original mouse 5/44 antibody for binding to Ramos cells (obtained from ATCC, a Burkitt's lymphoma lymphoblast human cell line expressing surface CD22). This assay was considered the best way to compare the grafts in their ability to bind to cell surface CD22.

Setting [3] is: Table 8, conjugates 160 μg/kg, rituximab 20 mg/kg ip Q4Dx3 from day 3.
The mark [4] stands for this setting: Table 8, conjugates 160 μg/kg, rituximab 20 mg/kg ip Q4Dx3 from day 9.

Turning to `CCN(C(C)=O)[C@H]1CO[C@@H](O[C@H]2[C@H](O[C@H]3C#C/C=C\C#C[C@]4(O)CC(=O)C(NC(=O)OC)=C3/C4=C\CSSC(C)(C)CC(=O)NN)O[C@H](C)[C@@H](NO[C@H]3C[C@H](O)[C@H](SC(=O)c4c(C)c(I)c(O[C@@H]5O[C@@H](C)[C@H](O)[C@@H](OC)[C@H]5O)c(OC)c4OC)[C@@H](C)O3)[C@@H]2O)C[C@@H]1OC` [N-ACETYL GAMMA CALICHEAMICIN DMH, N-Ac gamma calicheamicin DMH, reference compound], the IC50 in the experiment with RL (RL #1) is 0.226 nM; with RL (RL #2), 0.27 nM; in the experiment with Daudi it was 0.26 nM; in the experiment on Raji (Raji #1), 0.46 nM; in the experiment with Raji (Raji #2), 0.49 nM; in the experiment on Ramos (Ramos #1), 0.7 nM. The IC50 in the experiment on Ramos (Ramos #2) came out at 1 nM. For the same molecule, the “anti-tumor activity of unconjugated drug” value with RL NHL xenografts was “inactive”.
On to “CMA-676: isotype-matched control conjugate of hP67.6 (IgG4, anti-CD33) with AcBut linked calicheamicin [reference compound]”, for which, in the experiment with RL (RL #1), the IC50 of antibody came to 17.14 µg/mL and the 50% inhibitory concentration (IC50) was determined as 0.6 nM. In the experiment on RL (RL #2), the IC50 of antibody is 11.43 µg/mL and the IC50 came to 0.4 nM. Further, in the experiment with Daudi, the IC50 of antibody was 53.89 µg/mL and the 50% inhibitory concentration (IC50) is 1.89 nM. For the same molecule, in the experiment with Raji (Raji #1), the IC50 of antibody is 80.00 µg/mL and the IC50 was 2.8 nM. Further, in the experiment on Raji (Raji #2), the IC50 of antibody amounted to 117.14 µg/mL and the IC50 is 4.1 nM. Besides, in the experiment with large RAMOS lymphoma, the “effect on tumor growth” value was “no effect on the tumor growth” and the “mice sacrificed before day 15 because of tumor burden” value is “Four out of five”. Moreover, the “effect on survival time” value in the experiment on Ramos cells [1] (160 μg/kg ip Q4Dx3, p>0.05) was “did not increase survival time significantly”. Moreover, in the experiment with Ramos cells [1] (setting [3]), the “Average Survival Time” value was 32.9 days, the “Maximum Survival Time” value stood at 36.0 days, the “Median Survival Time” value was determined as 34.0 days and the “Minimum Survival Time” value is recorded as 28.0 days. For the same molecule, the “effect on survival times” value in the experiment on Ramos cells [2] (160 μg/kg ip Q4Dx3) is on record as “no significant effect on survival times”. In the experiment on Ramos cells [2] (setting [4]), the “Average Survival Time” value was 33.7 days, the “Maximum Survival Time” value came out at 42.0 days, the “Median Survival Time” value is 31.0 days and the “Minimum Survival Time” value was 30.0 days.
For the molecule CMC-544 (21 μg/mg) (CMA-676 procedure), in the experiment with CD22mFc, the “KA” value was determined as 8.1e+09 M⁻¹, the “Ka” value is 490000 M⁻¹ s⁻¹ and the “Kd” value came to 6.1e-05 s⁻¹.
Regarding CMC-544 (87 μg/mg) (CMA-544 procedure), in the experiment with CD22mFc, the “KA” value is 6.6e+09 M⁻¹, the “Ka” value turned out to be 460000 M⁻¹ s⁻¹ and the “Kd” value was 6.9e-05 s⁻¹.
Consider “CMC-544 PROCESS CMC-544 LOADING 65 μg/mg: CMC-544 made by the CMC-544 conjugation process”, for which the IC50 was found to be 0.006 nM in the experiment with RL (RL #1); 0.012 nM in the experiment on RL (RL #2); 0.021 nM in the experiment on Daudi; 0.5 nM with Raji (Raji #1); 0.56 nM with Raji (Raji #2); 0.26 nM in the experiment on Ramos (Ramos #2).
In the case of “CMC-676 PROCESS CMC-544 LOADING 35 μg/mg: CMC-544 made by the CMA-676 conjugation process”, the concentration for half-maximal inhibition (IC50) with RL (RL #1) stood at 0.03 nM; in the experiment with RL (RL #2), 0.04 nM; with Daudi it was 0.08 nM; in the experiment on Raji (Raji #2), 0.52 nM.
Consider “K60R: chimeric 5/44 with CDR-H2 mutation K60R removing the reactive lysine”, for which the “effect of the mutation on affinity” value in the experiment on CD22-mFc is listed as “neutral effect on affinity”.
Still for that read-out and setting: then “N55Q: chimeric 5/44 with CDR-H2 mutation N55Q removing the glycosylation site”, with “no effect on affinity”.

B1: gH6: CDR-grafted 5/44 heavy chain graft gH6 (SEQ ID NO: 26) (antibody, V domains shown)
VH: EVQLVQSGAEVKKPGASVKVSCKASGYRFTNYWIHWVRQAPGQGLEWIGGINPGNNYATYRRKFQGRATLTADTSTSTVYMELSSLRSEDTAVYYCTREGYGNYGAWFAYWGQGTLVTVSS
modifications: gH6
As to B1, the “binding activity in competition with mouse 5/44” value with cell surface CD22 is “did not appear to have affected binding”.

B2: gH7: CDR-grafted 5/44 heavy chain graft gH7 (SEQ ID NO: 27) (antibody, V domains shown)
VH: B1 VH with A68V, L70M
modifications: gH7
For B2, the “binding activity in competition with mouse 5/44” value in the experiment with cell surface CD22 is recorded as “did not appear to have affected binding”.

For the origin of these results see US9351986B2, “Calicheamicin derivative-carrier conjugates” (priority 2002, dated 2016).
